For 28 compounds, IC50 results are on record in patent US9969752B2, “Inhibitors of HIF prolyl hydroxylase” (MERCK SHARP & DOHME CORP., priority 2014, dated 2018).

The structures appear in SMILES notation.

In one experiment the target is T1, Human HIF-PHD2 (Homo sapiens, UniProt Q9GZT9).
T1 construct: FLAG-tagged full length PHD2 expressed in and purified from baculovirus-infected Sf9 cells; FLAG; made in house; host or cells: baculovirus-infected Sf9 cells
T1 sequence (Q9GZT9 whole entry): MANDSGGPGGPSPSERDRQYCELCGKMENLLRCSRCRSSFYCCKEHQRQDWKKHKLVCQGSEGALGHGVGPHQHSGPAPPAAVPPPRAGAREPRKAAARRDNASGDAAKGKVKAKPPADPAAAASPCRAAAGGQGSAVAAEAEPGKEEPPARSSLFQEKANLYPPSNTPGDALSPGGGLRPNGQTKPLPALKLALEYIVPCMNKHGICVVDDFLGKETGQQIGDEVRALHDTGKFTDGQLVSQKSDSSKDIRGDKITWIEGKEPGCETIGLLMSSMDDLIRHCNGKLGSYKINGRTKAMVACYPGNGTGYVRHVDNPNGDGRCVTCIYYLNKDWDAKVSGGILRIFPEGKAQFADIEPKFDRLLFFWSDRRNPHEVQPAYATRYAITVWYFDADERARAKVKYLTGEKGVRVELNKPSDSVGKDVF
Nature of the experiment: Inhibition of the hydroxylation of a HIF peptide by PHD2 (time resolved fluorescence, 384-well). The class given is biochemical. The following applies: FLAG-tagged full length PHD2; 0.2 μM 2-oxoglutarate, 0.5 μM HIF-1α peptide; 45 minutes at room temperature; read-out: Human HIF-PHD2 IC50.
As for `CN1CC(c2ccc(C(F)(F)F)cc2)n2c(=O)c(C(=O)NCC(=O)O)c(O)c3cccc1c32` (stereo not shown) [Example 107, 2-(7-Hydroxy-1-methyl-5-oxo-3-(4-(trifluoromethyl)phenyl)-1,2,3,5-tetrahydropyrido[1,2,3-de]quinoxaline-6-carboxamido)acetic acid], the IC50 worked out at 68 nM.
Still for that read-out and setting: for `O=C(O)CNC(=O)c1c(O)c2cccc3c2n(c1=O)CC(c1ccc(C(F)(F)F)cc1)N3` (stereo not shown) [Example 108, 2-(7-Hydroxy-5-oxo-2-(4-(trifluoromethyl)phenyl)-1,2,3,5-tetrahydropyrido[1,2,3-de]quinoxaline-6-carboxamido)acetic acid] the value was 6.5 nM; for `N#Cc1ccc2c(O)c(C(=O)NCC(=O)O)c(=O)n3c2c1NC(c1cncs1)C3` (stereo not shown) [Example 109, 2-(10-Cyano-7-hydroxy-5-oxo-2-(thiazol-5-yl)-1,2,3,5-tetrahydropyrido[1,2,3-de]quinoxaline-6-carboxamido)acetic acid], 4.2 nM; for `O=C(O)CNC(=O)c1c(O)c2cccc3c2n(c1=O)CC(c1cncs1)N3` (stereo not shown) [Example 110, 2-(7-Hydroxy-5-oxo-2-(thiazol-5-yl)-1,2,3,5-tetrahydropyrido[1,2,3-de]quinoxaline-6-carboxamido)acetic acid], 12 nM.
Still for that read-out and setting: for `O=C(O)CNC(=O)c1c(O)c2cccc3c2n(c1=O)C(c1cncs1)CN3` (stereo not shown) [Example 111, 2-(7-Hydroxy-5-oxo-3-(thiazol-5-yl)-1,2,3,5-tetrahydropyrido[1,2,3-de]quinoxaline-6-carboxamido)acetic acid] the value was 15 nM.
In the case of `CN1c2cccc3c(O)c(C(=O)NCC(=O)O)c(=O)n(c23)CC1c1cncs1` (stereo not shown) [Example 112, 2-(7-Hydroxy-1-methyl-5-oxo-2-(thiazol-5-yl)-1,2,3,5-tetrahydropyrido[1,2,3-de]quinoxaline-6-carboxamido)acetic acid], the IC50 turned out to be 29 nM.
Consider `CN1CC(c2cncs2)n2c(=O)c(C(=O)NCC(=O)O)c(O)c3cccc1c32` (stereo not shown) [Example 113, 2-(7-Hydroxy-1-methyl-5-oxo-3-(thiazol-5-yl)-1,2,3,5-tetrahydropyrido[1,2,3-de]quinoxaline-6-carboxamido)acetic acid], for which the IC50 is 125 nM.
On to `N#Cc1ccc2c(O)c(C(=O)NCC(=O)O)c(=O)n3c2c1NC(c1ccc(C(F)(F)F)cc1)C3` (stereo not shown) [Example 114, 2-(10-Cyano-7-hydroxy-5-oxo-2-(4-(trifluoromethyl)phenyl)-1,2,3,5-tetrahydropyrido[1,2,3-de]quinoxaline-6-carboxamido)acetic acid], for which the IC50 is 1 nM.
As for `O=C(O)CNC(=O)c1c(O)c2ccc(F)c3c2n(c1=O)C(c1ccc(C(F)(F)F)cc1)CN3` (stereo not shown) [Example 115, 2-(10-Fluoro-7-hydroxy-5-oxo-3-(4-(trifluoromethyl)phenyl)-1,2,3,5-tetrahydropyrido[1,2,3-de]quinoxaline-6-carboxamido)acetic acid], the IC50 was 13 nM.
`O=C(O)CNC(=O)c1c(O)c2ccc(F)c3c2n(c1=O)CC(c1ccc(C(F)(F)F)cc1)N3` (stereo not shown) [Example 116, 2-(10-Fluoro-7-hydroxy-5-oxo-2-(4-(trifluoromethyl)phenyl)-1,2,3,5-tetrahydropyrido[1,2,3-de]quinoxaline-6-carboxamido)acetic acid]: the IC50 was 8.8 nM.
Consider `CN1CC(c2ccc(C(F)(F)F)cc2)n2c(=O)c(C(=O)NCC(=O)O)c(O)c3ccc(F)c1c32` (stereo not shown) [Example 117, 2-(10-Fluoro-7-hydroxy-1-methyl-5-oxo-3-(4-(trifluoromethyl)phenyl)-1,2,3,5-tetrahydropyrido[1,2,3-de]quinoxaline-6-carboxamido)acetic acid], for which the IC50 came to 55 nM.
On the same count and under the same terms, for `O=C(O)CNC(=O)c1c(O)c2cc(F)cc3c2n(c1=O)C(c1ccc(C(F)(F)F)cc1)CN3` (stereo not shown) [Example 118, 2-(9-Fluoro-7-hydroxy-5-oxo-3-(4-(trifluoromethyl)phenyl)-1,2,3,5-tetrahydropyrido[1,2,3-de]quinoxaline-6-carboxamido)acetic acid] the value was 5.7 nM.
Same read-out and setting: for `O=C(O)CNC(=O)c1c(O)c2c(F)ccc3c2n(c1=O)CC(c1ccc(C(F)(F)F)cc1)N3` (stereo not shown) [Example 119, 2-(8-Fluoro-7-hydroxy-5-oxo-2-(4-(trifluoromethyl)phenyl)-1,2,3,5-tetrahydropyrido[1,2,3-de]quinoxaline-6-carboxamido)acetic acid] the value was 10 nM; for `O=C(O)CNC(=O)c1c(O)c2cc(F)cc3c2n(c1=O)CC(c1ccc(C(F)(F)F)cc1)N3` (stereo not shown) [Example 120, 2-(9-Fluoro-7-hydroxy-5-oxo-2-(4-(trifluoromethyl)phenyl)-1,2,3,5-tetrahydropyrido[1,2,3-de]quinoxaline-6-carboxamido)acetic acid], 4.6 nM.
Still for that read-out and setting: for `O=C(O)CNC(=O)c1c(O)c2c(F)ccc3c2n(c1=O)C(c1ccc(C(F)(F)F)cc1)CN3` (stereo not shown) [Example 121, 2-(8-Fluoro-7-hydroxy-5-oxo-3-(4-(trifluoromethyl)phenyl)-1,2,3,5-tetrahydropyrido[1,2,3-de]quinoxaline-6-carboxamido)acetic acid] the value was 9.4 nM.
Regarding `CN1CC(c2ccc(C(F)(F)F)cc2)n2c(=O)c(C(=O)NCC(=O)O)c(O)c3cc(F)cc1c32` (stereo not shown) [Example 122, 2-(9-Fluoro-7-hydroxy-1-methyl-5-oxo-3-(4-(trifluoromethyl)phenyl)-1,2,3,5-tetrahydropyrido[1,2,3-de]quinoxaline-6-carboxamido)acetic acid], the IC50 came out at 30 nM.
Take `CN1c2cc(F)cc3c(O)c(C(=O)NCC(=O)O)c(=O)n(c23)CC1c1ccc(C(F)(F)F)cc1` (stereo not shown) [Example 123, 2-(9-Fluoro-7-hydroxy-1-methyl-5-oxo-2-(4-(trifluoromethyl)phenyl)-1,2,3,5-tetrahydropyrido[1,2,3-de]quinoxaline-6-carboxamido)acetic acid]: the IC50 was determined as 15 nM.
On the same count and under the same terms, for `O=C(O)CNC(=O)c1c(O)c2cc(OC(F)(F)F)cc3c2n(c1=O)CC(c1ccc(C(F)(F)F)cc1)O3` (stereo not shown) [Example 124, 2-(7-Hydroxy-5-oxo-9-(trifluoromethoxy)-2-(4-(trifluoromethyl)phenyl)-3,5-dihydro-2H-[1,4]oxazino[2,3,4-ij]quinoline-6-carboxamido)acetic acid] the value was 9.6 nM; for `O=C(O)CNC(=O)c1c(O)c2cccc3c2n(c1=O)C(c1ccc(C(F)(F)F)nc1)CN3` (stereo not shown) [Example 127, 2-(7-Hydroxy-5-oxo-3-(6-(trifluoromethyl)pyridin-3-yl)-1,2,3,5-tetrahydropyrido[1,2,3-de]quinoxaline-6-carboxamido)acetic acid], 3.6 nM.
The same measure, in the same setting: for `CN1CC(c2ccc(C(F)(F)F)nc2)n2c(=O)c(C(=O)NCC(=O)O)c(O)c3cccc1c32` (stereo not shown) [Example 128, 2-(7-Hydroxy-1-methyl-5-oxo-3-(6-(trifluoromethyl)pyridin-3-yl)-1,2,3,5-tetrahydropyrido[1,2,3-de]quinoxaline-6-carboxamido)acetic acid] the value was 6.9 nM; for `CS(=O)(=O)Nc1ccc(-c2ccc3c(O)c(C(=O)NCC(=O)O)c(=O)n4c3c2OCC4c2ccc(C(F)(F)F)cc2)cc1` (stereo not shown) [Example 134, N-[(7-Hydroxy-10-{4-[(methylsulfonyl)amino]phenyl}-5-oxo-3-[4-(trifluoromethyl)phenyl]-2,3-dihydro-5H-[1,4]oxazino[2,3,4-ij]quinolin-6-yl)carbonyl]glycine], 38 nM; for `NC(=O)c1ccc(-c2ccc(C3COc4cccc5c(O)c(C(=O)NCC(=O)O)c(=O)n3c45)cc2)cc1` (stereo not shown) [Example 141, N-{[3-(4′-Carbamoylbiphenyl-4-yl)-7-hydroxy-5-oxo-2,3-dihydro-5H-[1,4]oxazino[2,3,4-ij]quinolin-6-yl]carbonyl}glycine], 6.1 nM.

The same experiment, now with this note: FLAG-tagged full length PHD2; 0.2 μM 2-oxoglutarate, 0.5 μM HIF-1α peptide; 45 minutes at room temperature; read-out: MS m/z (M + 1)+ and human HIF-PHD2 IC50.
Regarding `COc1cncc(-c2ccc3c(O)c(C(=O)NCC(=O)O)c(=O)n4c3c2OCC4c2ccc(C(F)(F)F)cc2)c1` (stereo not shown) [Example 135, N-({7-hydroxy-10-(5-methoxypyridin-3-yl)-5-oxo-3-[4-(trifluoromethyl)phenyl]-2,3-dihydro-5H-[1,4]oxazino[2,3,4-ij]quinolin-6-yl}carbonyl)glycine], the IC50 stood at 15 nM.
On to `O=C(O)CNC(=O)c1c(O)c2ccc(-c3ccccn3)c3c2n(c1=O)C(c1ccc(C(F)(F)F)cc1)CO3` (stereo not shown) [Example 136, N-({7-hydroxy-5-oxo-10-pyridin-2-yl-3-[4-(trifluoromethyl)phenyl]-2,3-dihydro-5H-[1,4]oxazino[2,3,4-ij]quinolin-6-yl}carbonyl)glycine], for which the IC50 worked out at 19 nM.
In the case of `COc1ncc(-c2ccc3c(O)c(C(=O)NCC(=O)O)c(=O)n4c3c2OCC4c2ccc(C(F)(F)F)cc2)cn1` (stereo not shown) [Example 137, N-({7-hydroxy-10-(2-methoxypyrimidin-5-yl)-5-oxo-3-[4-(trifluoromethyl)phenyl]-2,3-dihydro-5H-[1,4]oxazino[2,3,4-ij]quinolin-6-yl}carbonyl)glycine], the IC50 worked out at 14 nM.
Still for that read-out and setting: for `O=C(O)CNC(=O)c1c(O)c2ccc(-c3cncnc3)c3c2n(c1=O)C(c1ccc(C(F)(F)F)cc1)CO3` (stereo not shown) [Example 138, N-({7-hydroxy-5-oxo-10-pyrimidin-5-yl-3-[4-(trifluoromethyl)phenyl]-2,3-dihydro-5H-[1,4]oxazino[2,3,4-ij]quinolin-6-yl}carbonyl)glycine] the value was 12 nM; for `NC(=O)c1cccc(-c2ccc3c(O)c(C(=O)NCC(=O)O)c(=O)n4c3c2OCC4c2ccc(C(F)(F)F)cc2)c1` (stereo not shown) [Example 139, N-({10-(3-carbamoylphenyl)-7-hydroxy-5-oxo-3-[4-(trifluoromethyl)phenyl]-2,3-dihydro-5H-[1,4]oxazino[2,3,4-ij]quinolin-6-yl}carbonyl)glycine], 14 nM.
The same measure, in the same setting: the value for `O=C(O)CNC(=O)c1c(O)c2ccc(-c3ccn[nH]3)c3c2n(c1=O)C(c1ccc(C(F)(F)F)cc1)CO3` (stereo not shown) [Example 140, 2-(7-hydroxy-5-oxo-10-(1H-pyrazol-5-yl)-3-(4-(trifluoromethyl)phenyl)-3,5-dihydro-2H-[1,4]oxazino[2,3,4-ij]quinoline-6-carboxamido)acetic acid] was 11 nM.
